The record followed here is patent publication US6716437B1, “Topical composition and method for enhancing lipid barrier synthesis” (E-L Management Corporation, priority 1993, dated 2004).

Entries after “also recorded” stand apart in the source; their conditions may differ.

The subject of one assay is skin barrier. As to the kind of experiment: Clinical study: skin barrier function by tape stripping and TEWL. The format is in vivo, human. As to conditions: twice a day, volar forearm. On the procedure:
B. Effect of cafestol on skin barrier function. Ten healthy female subjects, between the ages of 25-45. with normal skin on their forearms are tested in this study. […] They acclimate in the environmental room at 40% relative humidity and 70° F. for 20 minutes before their baseline measurements are recorded. They are then randomly assigned to one of two treatment groups.
Group I (n=5) receives treatment containing cafestol at 0.1% to use on one arm and a placebo to use on the other arm. Group II (n+5) uses a treatment containing 0.2% cafestol palmitate on one arm and a treatment containing 0.1% cafestol acetate on the other arm. The subjects self-administer the treatment twice a day on the lower part of their volar forearms except on the day of testing.
A five cm by two cm are is marked using a template on the lower inner forearm and initial water evaporation measurements are taken in three separate spots approximately 1 cm apart in a row. Five cm of the cello-tape is placed on the skin in the outlined area, starting from the top and after one firm stroke in each direction is removed by gently pulling in a downward direction parallel to the skin. The procedure is repeated and water evaporation is measured after every five to ten strips until the barrier is broken, as indicated by a minimum water evaporation of 18 g/sq m hr on one of the three spots. The subjects' transepidermal water loss (TEWL) is monitored on the challenged sites after 1, 2 and 3 days in order to measure the ability of the skin to repair itself. After 5 and 10 days of product treatment, the above procedure is repeated under the same test conditions on an adjacent new site.
TEWL is measured with the Servo Med Evaporimeter, fitted with a chimney and gauze. The subjects are in a relaxed inclined position, and are not allowed to converse or get excited. TEWL is recorded automatically using the Dia-Stron computer program set at a 30 second data acquisition time and a 15 second plateau.
B. Barrier strength measurements. Barrier strength is evaluated by challenging the skin with tape stripping and measuring the water evaporation (WE). To describe the experimental data, curve fitting Linear Regression Analysis based on least-square method is performed on each individual's data and the number of tape strippings required to reach a WE of 18 g/sq m/hr is recorded for each visit. The number of tape strippings required to perturb the barrier is a measure of its strength.

In assay [1] the test system is Living skin models. As to the kind of experiment: Living skin models: ceramide/lipid production by HPTLC/TLC. The format is cell-based. On the procedure:
A. Determination of cafestol activity. Living skin models (#1301) are obtained from Advanced Tissue Sciences and treated with cafestol acetate(Sigma)by addition of a stock solution prepared in cell culture medium in a dose-dependent manner from 0.01 mg/ml to 1.0 mg/ml, or in a time-dependent manner at 0.5 mg/ml for up to 7 days. All experiments are conducted with untreated controls. At each dose or time point, the skin models are homogenized and the lipids extracted with chloroform/methanol(2:1), taken to dryness, and resuspended in chloroform. Samples are chromatographed on HPTLC and their lipid composition visualized by degradative charring (Melnick et al., J. Invest. Dermatol 92:231-234, 1989)
B. Comparison of cafestol activity with coffee bean oil activity. To compare the lipid enhancing activity of cafestol with that of coffee bean oil, living skin models are treated over a period of five days with increasing amounts of cafestol acetate in a range from 0.01 mg/ml to 1.0 mg/ml. A parallel set of living skin squares is also tested with a sample of coffee bean oil (Robeco). At the end of the incubation period, each skin square is homogenized and its lipids extracted in chloroform/methanol (2:1). This is followed by TLC analysis. Ceramides are identified by degradative charring and comparison to ceramide standards. Densitometric analysis of the TLC plate is carried out with an Optimas Bioscan.

In a further assay the test system is stratum corneum lipids. As to the kind of experiment: Clinical study: ceramide levels on human skin by thin layer chromatography. The format is in vivo. On the procedure: A. Determination of cafestol activity on lipid production. […] A short clinical study, consisting of five subjects, is then carried out under the same conditions in order to test the ability of cafestol acetate to raise ceramide levels. At zero time, ethanol washes are performed in order to remove stratum corneum lipids from both arms. Cafestol acetate, prepared in ethanol at a concentration of 1 mg/ml, is applied twice a day with a pump spray to the right volar forearm. As a control, ethanol is applied at the corresponding site at the left arm. On day three, stratum corneum lipids are again removed and both zero time and day three lipids from both arms are evaluated by thin layer chromatography as described above.

In assay [2] the test system is Living skin models. As to the kind of experiment: Histology of treated living skin models. The format is cell-based. The conditions noted are these: living skin squares, fixed, sectioned, hematoxylin/eosin. On the procedure:
C. Histology. To determine the histological effect of cafestol application to living skin, skin squares are treated as described above; at the end of the incubation period, samples are fixed, sectioned and stained with hematoxylin/eosin.

Consider `CC(=O)OC[C@@]1(O)C[C@@]23CC[C@@H]4c5ccoc5CC[C@@]4(C)[C@@H]2CC[C@@H]1C3` [cafestol acetate], for which the “increase in barrier strength (number of tape strippings to reach WE of 18 g/sq m/hr)” value in the assay on skin barrier (after 5 days of treatment) is 10%; with skin barrier (after 10 days of treatment), 38%. The “ceramides as a function of dose (HPTLC)” value in the assay with Living skin models [1] (0.01 mg/ml to 1.0 mg/ml) is reported as “increase in ceramide production with increasing dosage; also recorded: selective increase in ceramides as a function of dose”. The “ceramides as a function of time (HPTLC)” value in the assay with Living skin models [1] (0.5 mg/ml for up to 7 days) was “presence of ceramides after only one day of application, reaching maximum concentrations after three days”.
In the case of `CCCCCCCCCCCCCCCC(=O)OC[C@@]1(O)C[C@@]23CC[C@@H]4c5ccoc5CC[C@@]4(C)[C@@H]2CC[C@@H]1C3` [cafestol palmitate], the “increase in barrier strength (number of tape strippings to reach WE of 18 g/sq m/hr)” value was 8% in the assay with skin barrier (after 5 days of treatment) and 43% in the assay on skin barrier (after 10 days of treatment).
Regarding `C[C@@]12CCc3occc3[C@H]1CC[C@@]13C[C@@H](CC[C@H]12)[C@@](O)(CO)C3` [cafestol], the “ceramide I level” value with stratum corneum lipids (five subjects, 1 mg/ml in ethanol twice a day, volar forearm, day three) was “increased levels of ceramide I in four of the five subjects”; in the assay on stratum corneum lipids (initial test, single individual, applied directly to skin over three days), “elevated”. In addition, the “ceramide IV level” value in the assay with stratum corneum lipids (the subject without ceramide I increase, 1 mg/ml in ethanol twice a day, day three) was “increase in ceramide IV”. Also, the “ceramide production, comparison with coffee bean oil (TLC, densitometric scan)” value in the assay with Living skin models [1] (five days, 0.01 mg/ml to 1.0 mg/ml) is “dose-dependent increase in ceramide production”. Moreover, the “stratum corneum (histological analysis)” value with Living skin models [2] is “clear increase in stratum corneum”.
